Results as given in ChEMBL document CHEMBL4346720, “Review of the molecular mechanisms of Ganoderma lucidum triterpenoids: Ganoderic acids A, C2, D, F, DM, X and Y” (Eur J Med Chem, 2019).
≈ marks a conversion by molar mass, not a printed value.

Legend:
[1] = Inhibition of human T9A4 cells assessed as reduction in cholesterol synthesis after 30 mins in presence of [14C]acetate, [14C]mevanolate, 24,25-dihydro-[24,25-3H2]lanosterol, [3-3H]lathosterol by acetate incorporation assay; assay type: functional
[2] = Tmax in Sprague-Dawley rat at 300 mg/kg, po by LC-ESI-IT-TOF/MS analysis; assay type: ADME, organism-based; details: in vivo
[3] = test system: Osteoclast; assay: Inhibition of calcitriol-induced formation of Sprague-Dawley rat osteoclasts by […]; assay type: functional
[4] = test system: RAW264.7; assay: Cytotoxicity against mouse RAW264.7 cells assessed as reduction in cell viability by WST-1 assay; assay type: functional
[5] = Inhibition of RANKL/tumour necrosis factor alpha-induced formation of osteoclasts (unknown origin) by tartrate-resistant acid phosphatase staining based assay; assay type: functional
[6] = test system: HeLa; assay: Induction of apoptosis in human HeLa cells; assay type: functional, cell-based
[7] = molecular target: T1, DNA topoisomerase 1 (Homo sapiens, UniProt P11387); assay: Inhibition of recombinant human topoisomerase-1-mediated relaxation of supercoiled pRYG DNA after 30 mins by ethidium bromide staining based assay
T1 sequence (P11387 whole entry): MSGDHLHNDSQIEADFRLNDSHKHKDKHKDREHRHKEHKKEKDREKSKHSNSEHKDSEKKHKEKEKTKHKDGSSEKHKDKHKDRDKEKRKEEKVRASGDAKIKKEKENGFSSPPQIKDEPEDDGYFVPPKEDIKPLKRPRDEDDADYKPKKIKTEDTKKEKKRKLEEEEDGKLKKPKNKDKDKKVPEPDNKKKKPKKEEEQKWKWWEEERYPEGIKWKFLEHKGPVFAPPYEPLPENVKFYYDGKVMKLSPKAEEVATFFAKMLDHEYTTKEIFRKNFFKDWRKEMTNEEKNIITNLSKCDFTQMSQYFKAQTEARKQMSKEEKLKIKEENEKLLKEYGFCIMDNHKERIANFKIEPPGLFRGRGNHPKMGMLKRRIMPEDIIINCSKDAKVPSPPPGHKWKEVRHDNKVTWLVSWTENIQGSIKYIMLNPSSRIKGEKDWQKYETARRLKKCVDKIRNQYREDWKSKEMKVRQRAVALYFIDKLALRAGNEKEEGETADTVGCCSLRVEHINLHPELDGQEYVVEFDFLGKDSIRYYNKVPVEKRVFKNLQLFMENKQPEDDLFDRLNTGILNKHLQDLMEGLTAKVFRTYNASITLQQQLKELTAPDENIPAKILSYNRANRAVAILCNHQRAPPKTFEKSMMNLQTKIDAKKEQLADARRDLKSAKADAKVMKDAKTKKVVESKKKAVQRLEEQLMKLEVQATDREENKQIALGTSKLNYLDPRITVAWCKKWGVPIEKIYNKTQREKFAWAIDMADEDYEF

[8] = molecular target: Signal transducer and activator of transcription 3 (Homo sapiens) (UniProt P40763); assay: Inhibition of IL-6-stimulated STAT3 (unknown origin) phosphorylation preincubated for 4 hrs followed by IL-6 addition measured after 24 hrs by luciferase reporter gene assay
[9] = test system: HepG2; assay: Cytotoxicity against human HepG2 cells assessed as reduction in cell viability after 24 hrs by MTT assay; assay type: functional; details: HepG2, 24 h

Sequence of Signal transducer and activator of transcription 3 (Homo sapiens) (P40763 whole entry): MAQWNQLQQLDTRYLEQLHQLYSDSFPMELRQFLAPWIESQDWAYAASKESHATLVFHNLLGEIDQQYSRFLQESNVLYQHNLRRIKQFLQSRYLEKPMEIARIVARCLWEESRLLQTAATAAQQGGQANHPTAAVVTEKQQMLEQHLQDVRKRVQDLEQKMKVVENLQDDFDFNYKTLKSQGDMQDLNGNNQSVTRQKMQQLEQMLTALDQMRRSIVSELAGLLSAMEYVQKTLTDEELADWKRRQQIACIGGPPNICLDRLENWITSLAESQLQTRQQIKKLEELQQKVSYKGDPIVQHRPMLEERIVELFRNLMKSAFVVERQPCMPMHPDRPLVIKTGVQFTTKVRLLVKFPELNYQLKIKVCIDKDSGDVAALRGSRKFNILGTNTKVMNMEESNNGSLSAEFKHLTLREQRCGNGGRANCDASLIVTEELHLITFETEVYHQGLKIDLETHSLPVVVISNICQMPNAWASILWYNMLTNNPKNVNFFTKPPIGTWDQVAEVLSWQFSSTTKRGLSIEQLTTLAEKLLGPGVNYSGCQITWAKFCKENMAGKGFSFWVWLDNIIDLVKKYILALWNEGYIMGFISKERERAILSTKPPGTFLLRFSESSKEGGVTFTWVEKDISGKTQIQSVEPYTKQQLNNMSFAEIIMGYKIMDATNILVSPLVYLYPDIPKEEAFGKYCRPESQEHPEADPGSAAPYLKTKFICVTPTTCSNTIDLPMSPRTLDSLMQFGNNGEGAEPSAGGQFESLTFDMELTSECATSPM

C/C(=C\CC[C@@H](C)[C@H]1CC[C@@]2(C)C3=CC[C@H]4C(C)(C)[C@@H](O)CC[C@]4(C)C3=CC[C@]12C)C(=O)O [GANODERIC ACID Y]
IC50 [1]: 1.4 µM

C[C@H](CC(=O)C[C@@H](C)[C@H]1C[C@H](O)[C@@]2(C)C3=C(C(=O)C[C@]12C)[C@@]1(C)CC[C@H](O)C(C)(C)[C@@H]1C[C@@H]3O)C(=O)O [GANODERIC ACID C2]
Tmax [2]: 3.9 min

C/C(=C/CC[C@@H](C)[C@H]1CC[C@@]2(C)C3=C(CC[C@]12C)[C@@]1(C)CCC(=O)C(C)(C)[C@@H]1CC3=O)C(=O)O [GANODERIC ACID DM]
MIC [3]: 10 µg/mL (≈ 21.3 µM)
CC50 [4]: 65 µM
IC50 [5]: 30 µM

C[C@H](CC(=O)C[C@H](C)C(=O)O)[C@H]1CC(=O)[C@@]2(C)C3=C(C(=O)C[C@]12C)[C@@]1(C)CCC(=O)C(C)(C)[C@@H]1C[C@@H]3O
CC50 [4]: > 400 µM
IC50 [5]: 400 µM
IC50 [6]: 17.3 µM

CC(=O)O[C@H]1C[C@H]([C@H](C)CC/C=C(\C)C(=O)O)[C@@]2(C)CC=C3C(=CC[C@H]4C(C)(C)[C@H](O)CC[C@]34C)[C@]12C
IC50 [7]: 25 µM

C[C@H](CC(=O)C[C@@H](C)[C@H]1C[C@H](O)[C@@]2(C)C3=C(C(=O)C[C@]12C)[C@@]1(C)CCC(=O)C(C)(C)[C@@H]1C[C@@H]3O)C(=O)O [GANODERIC ACID A]
MIC [8]: 60 µM (≈ 31 µg/mL)
CC50 [9]: 80 µM
